Test results published in patent US10085955B2, “Methods and compositions for treatment of demyelinating diseases” (Pathologica LLC, priority 2013, dated 2018).
“Also recorded” adds a separate entry of the source. Like-named read-outs stand apart in the source and are kept apart here.

Tests used:
[1] = parameters: species or system DBA/1 mice; conditions: male, DBA/1, mouse, in vivo
Method: Twenty-four male DBA/1 mice weighing 19.5-24.7 g and aged 7-9 weeks administered the test article, MGBG, as either a single bolus intravenous dose via a lateral tail vein of 1 mg/kg (Group 1, n=12) or as a single oral gavage dose of 10 mg/kg (Group 2, n=12). Each dose group consisted of 4 cohorts of 3 animals each. Group 1 was sampled at 5, 15, and 30 minutes after dosing; and 1, 2, 4, 8, and 24 hours after dosing. Group 2 was sampled at 1, 2, 4, 8, 12, 24, and 36 hours after dosing. Starting with the first time point, a new cohort was sampled at each successive time point up to the 1-hour (Group 1) or […] (Group 2) time point. The order of sampling among the cohorts was repeated for the subsequent time points (some cohorts may have been bled only once). The second bleed for each cohort was terminal. Animals were sacrificed via CO2 inhalation anesthesia after final blood collection.
The samples were centrifuged under refrigerated conditions following completion of sample collection at each interval. The resulting plasma was separated and stored frozen at approximately −70° C. until analysis. Analysis was performed by LC/MS/MS. Pharmacokinetic analyses were performed on the mean MGBG plasma concentration versus time data using the non-compartmental approach (linear trapezoidal rule for AUC calculations). The WinNonlin sparse sampling tool was used for PK calculations.
The second method used to convert the efficacious 60 mg/kg/day dose in mice to an equivalent dose in humans was based more directly on allometric scaling. Data from an MGBG pharmacokinetic study consisting of a 10 mg/kg oral dose in mice was modeled in a simulation to determine the theoretical AUCINF value for a dosing regimen of 30 mg/kg PO BID, which was 9050 h*ng/mL. Next, predicted human clearance values as determined by single- and multi-species allometric scaling were used to estimate doses likely to produce an exposure in humans (AUCINF) similar to that of the 60 mg/kg/day in mice. […] Using multi-species allometric scaling, the predicted human equivalent dose is about 4.2 mg/kg/day.

[2] = parameters: species or system beagle dogs; conditions: male, beagle, dog, in vivo
Method: Two groups of three male beagle dogs weighing 9.0-10.7 kg and aged 8-30 months were fasted overnight before being administered the test article, MGBG, as either a single bolus intravenous dose of 1 mg/kg (Group 1) or as a single oral gavage dose of 10 mg/kg (Group 2). Dose formulation analysis verified administered dose solutions as within 17% of targeted concentrations of 1 and 10 mg/kg for Groups 1 and 2, respectively.
Blood samples (approximately 2.0 mL) were collected for plasma MGBG concentration measurement from all intravenously dosed animals prior to dosing and at approximately T=0.083 (5 min), 0.25 (15 min), 0.5 (30 min), 1, 2, 4, 8, and 24 hours after dosing. A similar procedure was used with orally dosed animals was used, except that collection took place at T=1, 2, 4, 8, 12, 24, and 36 hours after dosing. The samples were centrifuged under refrigerated conditions following completion of sample collection at each interval. The resulting plasma was separated and stored frozen at approximately −70° C. until analysis.

[3] = test system: MOG-induced experimental autoimmune encephalomyelitis (EAE); test: Second MOG EAE protocol, clinical readouts; assay type: in vivo, C57BL/6 mice; conditions: second study; MGBG 30 mpk BID, fingolimod 1 mpk QD
Source text: An experimental murine model of multiple sclerosis employing a myelin oligodendrocyte glycoprotein (MOG) peptide to induce experimental autoimmune encephalomyelitis (EAE) was employed to determine the efficacy of MGBG in preventing and treating that disease. Because of its many similarities to MS, EAE is commonly used to study pathogenesis of autoimmunity, CNS inflammation, demyelination, cell trafficking, and tolerance induction. EAE is characterized by paralysis (in some models the paralysis is remitting-relapsing), CNS inflammation and demyelination. EAE is mediated primarily by dendritic cells, myelin-specific T cells (e.g. Th1 and Th17), and M1 macrophages. B cells may also play a role in some models of EAE. Body weight also tracks disease progression. EAE is induced in C57BL/6 mice by immunization with MOG35-55 or MOG1-125 in CFA emulsion followed by administration of pertussis toxin (PTX) in PBS. The emulsion provides antigen which initiates expansion and differentiation of MOG-specific autoimmune T cells. PTX enhances EAE development by providing additional adjuvant and facilitating entrance of autoimmune T cells into the CNS. […]
Clinically, EAE progression is scored on a scale of 0 to 5, wherein each score represents the following clinical observations: […]

CC(/C=N/NC(=N)N)=N\NC(=N)N [MGBG, 1,1′ [methylethanediylidene]dinitrilodiguanidine]
Clobs ([1]; iv, 1 mg/kg): 49.6 mL/min/kg
VSSobs ([1]; iv, 1 mg/kg): 38.3 L/kg
Clobs ([1]; po, 10 mg/kg): 6.68 mL/min/kg
Vd ([1]; po, 10 mg/kg): 38.3 L/kg
Clobs ([2]; iv, 1 mg/kg): 13.7 mL/min/kg
VSSobs ([2]; iv, 1 mg/kg): 14.6 L/kg
Clobs ([2]; po, 10 mg/kg): 8.29 mL/min/kg
Vd ([2]; po, 10 mg/kg): 14.6 L/kg
EAE disease development / severity [3]: suppressed EAE comparably to 1 mpk fingolimod; also recorded: substantially reduced disease compared to that of the vehicle group; also recorded: efficacious at postponing disease onset and reducing EAE severity
